Experimental data from PubChem BioAssay (NCI).
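All cell lines were grown in 96-well plates and treated with compound for 48 hours. GI50 = concentration required for 50% inhibition of growth. At the TGI there is no net growth.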

Tests used:
Assay in all cases: NCI anticancer screen, dose series, 48 h
[1] = system: OVCAR-5 ovarian
[2] = system: RXF 393 renal
[3] = system: SN12C renal
[4] = system: NCI-H460 lung
[5] = system: SW-620 colon
[6] = system: SF-539 CNS
[7] = system: DU-145 prostate
[8] = system: SK-MEL-28 melanoma
[9] = system: MDA-MB-231 breast
[10] = system: HCC-2998 colon

C=C(C)[C@@H]1CC[C@]2(COC(=O)c3ccccc3C(=O)O)CC[C@]3(C)[C@H](CC[C@@H]4[C@@]5(C)CC[C@H](OC(=O)c6ccccc6C(=O)O)C(C)(C)[C@@H]5CC[C@]43C)[C@@H]12
GI50 [1]: > 100 µM
TGI [1]: > 100 µM
GI50 [2]: 22.6 µM
TGI [2]: 77.3 µM
GI50 [3]: 60.8 µM
TGI [3]: > 100 µM
GI50 [4]: 85.1 µM
TGI [4]: > 100 µM
GI50 [5]: 97.7 µM
TGI [5]: > 100 µM
GI50 [6]: 36.3 µM
TGI [6]: > 100 µM
GI50 [7]: 32.8 µM
TGI [7]: > 100 µM
GI50 [8]: 95.5 µM
TGI [8]: > 100 µM
GI50 [9]: 25 µM
TGI [9]: 69.3 µM
GI50 [10]: 74.3 µM
TGI [10]: > 100 µM

NCCNc1nc2ccc(F)cc2c2c(=O)c3cc(F)ccc3sc12
GI50 [1]: 1.77 µM
TGI [1]: 3.67 µM
GI50 [2]: 2.33 µM
TGI [2]: 7.32 µM
GI50 [3]: 1.68 µM
TGI [3]: 3.29 µM
GI50 [4]: 1.85 µM
TGI [4]: 3.47 µM
GI50 [5]: 1.56 µM
TGI [5]: 3.09 µM
GI50 [6]: 1.76 µM
TGI [6]: 3.25 µM
GI50 [7]: 1.9 µM
TGI [7]: 3.39 µM
GI50 [8]: 2.05 µM
TGI [8]: 4.18 µM
GI50 [9]: 1.51 µM
TGI [9]: 3.08 µM
GI50 [10]: 1.77 µM
TGI [10]: 3.44 µM

C=CC(=O)N1CCC(CNc2ncnc(N)c2-c2ccc(Oc3ccccc3)cc2)CC1
GI50 [1]: 46.7 µM
TGI [1]: > 100 µM
GI50 [2]: 22.4 µM
TGI [2]: 85.2 µM
GI50 [3]: 25.2 µM
TGI [3]: > 100 µM
GI50 [4]: 34.8 µM
TGI [4]: > 100 µM
GI50 [5]: 33.5 µM
TGI [5]: > 100 µM
GI50 [6]: 20.6 µM
TGI [6]: 71 µM
GI50 [7]: 32.9 µM
TGI [7]: > 100 µM
GI50 [8]: 34.4 µM
TGI [8]: > 100 µM
GI50 [9]: 25.5 µM
TGI [9]: 89 µM
GI50 [10]: 21 µM
TGI [10]: 46.7 µM

CN1CCN(c2ccc(NC(=O)c3cncnc3Nc3ccc4c(ccn4Cc4cccc(F)c4)c3)cc2)CC1
GI50 [1]: 3.42 µM
TGI [1]: 7.32 µM
GI50 [2]: 0.707 µM
TGI [2]: 3.77 µM
GI50 [3]: 3.83 µM
TGI [3]: 8.15 µM
GI50 [4]: 1.35 µM
TGI [4]: 4.99 µM
GI50 [5]: 0.828 µM
TGI [5]: 2.35 µM
GI50 [6]: 1.35 µM
TGI [6]: 5.54 µM
GI50 [7]: 3.82 µM
TGI [7]: 7.87 µM
GI50 [8]: 0.533 µM
TGI [8]: 1.01 µM
GI50 [9]: 1.34 µM
TGI [9]: 5.03 µM
GI50 [10]: 3.03 µM
TGI [10]: 7.4 µM

COc1ncc(-c2ccc3ncnc(Nc4cccc(Cl)c4)c3c2)cc1NS(C)(=O)=O
GI50 [1]: 0.273 µM
TGI [1]: 6.51 µM
GI50 [2]: 1.42 µM
TGI [2]: 4.79 µM
GI50 [3]: 1.76 µM
TGI [3]: 31.8 µM
GI50 [4]: 1.87 µM
TGI [4]: > 100 µM
GI50 [5]: 3.22 µM
TGI [5]: 17.7 µM
GI50 [6]: 2.09 µM
TGI [6]: 9.92 µM
GI50 [7]: 0.756 µM
TGI [7]: 21.1 µM
GI50 [8]: 1.81 µM
TGI [8]: 41.3 µM
GI50 [9]: 1.99 µM
TGI [9]: 19.6 µM
GI50 [10]: 1.82 µM
TGI [10]: 14.8 µM

NC(=O)/C=C/c1c[nH]c2nccnc12
TGI [1]: 0.662 µM
TGI [2]: 4.17 µM
TGI [3]: 11.4 µM
TGI [4]: > 54 µM
TGI [5]: 10.5 µM
TGI [6]: 6.15 µM
TGI [7]: > 34 µM
TGI [8]: 4.26 µM
TGI [9]: 31.6 µM
TGI [10]: 5.28 µM

O=C(O)c1ccccc1C(=O)Nc1cc2c(cc1Br)-c1ccccc1C2=O
TGI [1]: > 100 µM
TGI [2]: > 100 µM
TGI [3]: > 100 µM
TGI [4]: > 100 µM
TGI [5]: > 100 µM
TGI [6]: > 100 µM
TGI [7]: > 100 µM
TGI [8]: > 100 µM
TGI [9]: > 100 µM
TGI [10]: 58 µM

COc1ccccc1CNC(=O)/C=C/c1ccc(O)c(O)c1
GI50 [1]: > 100 µM
TGI [1]: > 100 µM
GI50 [2]: 54.9 µM
TGI [2]: > 100 µM
GI50 [3]: 68.6 µM
TGI [3]: > 100 µM
GI50 [4]: 45.9 µM
TGI [4]: > 100 µM
GI50 [5]: > 100 µM
TGI [5]: > 100 µM
GI50 [6]: 22.2 µM
TGI [6]: 65.9 µM
GI50 [7]: 82.4 µM
TGI [7]: > 100 µM
GI50 [8]: 89 µM
TGI [8]: > 100 µM
GI50 [9]: 22.6 µM
TGI [9]: > 100 µM
GI50 [10]: 34.6 µM
TGI [10]: > 100 µM

COC(=O)C[C@@H]1CC=CC(=O)/C1=C(O)/C=C/c1ccccc1
GI50 [1]: 1.84 µM
TGI [1]: 4.57 µM
GI50 [2]: 0.295 µM
TGI [2]: 0.888 µM
GI50 [3]: 0.462 µM
TGI [3]: 2.99 µM
GI50 [4]: 2.08 µM
TGI [4]: 8.2 µM
GI50 [5]: 0.338 µM
TGI [5]: 1.33 µM
GI50 [6]: 0.433 µM
TGI [6]: 7.15 µM
GI50 [7]: 0.695 µM
TGI [7]: 1.96 µM
GI50 [8]: 1.19 µM
TGI [8]: 2.61 µM
GI50 [9]: 1.46 µM
TGI [9]: 4.22 µM
GI50 [10]: 1.72 µM
TGI [10]: 3.25 µM

Fc1cccc(-c2nc(-c3c[nH]c4ncccc34)cs2)c1
GI50 [1]: > 100 µM
TGI [1]: > 100 µM
GI50 [2]: 23.1 µM
TGI [2]: 90.8 µM
GI50 [3]: > 100 µM
TGI [3]: > 100 µM
GI50 [4]: 6.59 µM
TGI [4]: > 100 µM
GI50 [5]: > 100 µM
TGI [5]: > 100 µM
GI50 [6]: 70 µM
TGI [6]: > 100 µM
GI50 [7]: > 100 µM
TGI [7]: > 100 µM
GI50 [8]: > 100 µM
TGI [8]: > 100 µM
GI50 [9]: 38.2 µM
TGI [9]: > 100 µM
GI50 [10]: > 100 µM
TGI [10]: > 100 µM

Cc1cc(O)cc(-c2nn(C)cc2-c2cc(N3CCOCC3)nc(-c3cccnc3)n2)c1
GI50 [1]: 12.2 µM
TGI [1]: > 100 µM
GI50 [2]: 1.7 µM
TGI [2]: 6.51 µM
GI50 [3]: 5.51 µM
TGI [3]: > 100 µM
GI50 [4]: 3.28 µM
TGI [4]: > 100 µM
GI50 [5]: 8.14 µM
TGI [5]: 48.1 µM
GI50 [6]: 1.88 µM
TGI [6]: 4.8 µM
GI50 [7]: 3.97 µM
TGI [7]: > 100 µM
GI50 [8]: 3.8 µM
TGI [8]: 21.1 µM
GI50 [9]: 5.82 µM
TGI [9]: 38 µM
GI50 [10]: 13.9 µM
TGI [10]: 49.5 µM

CCOC(=O)CC1C(CNC(=O)NC)OC(n2cnc3c(NC(=O)Nc4ccccc4)ncnc32)C1O[Si](C)(C)C(C)(C)C (stereo not given)
GI50 [1]: 31.1 µM
TGI [1]: > 100 µM
GI50 [2]: 2.01 µM
TGI [2]: 4.63 µM
GI50 [3]: 9.1 µM
TGI [3]: > 100 µM
GI50 [4]: 5.53 µM
TGI [4]: 25 µM
GI50 [5]: 4.8 µM
TGI [5]: 28.4 µM
GI50 [6]: 5.19 µM
TGI [6]: > 100 µM
GI50 [7]: 4.97 µM
TGI [7]: 19.4 µM
GI50 [8]: 6.85 µM
TGI [8]: 20.2 µM
GI50 [9]: 3.96 µM
TGI [9]: 41.3 µM
GI50 [10]: > 100 µM
TGI [10]: > 100 µM
